No end group written: not given here.
Key:
[1] = test system: wild-type leaves of Arabidopsis thaliana Col-0; test: Oxidative burst induced by elf18 peptides from phytopathogenic bacteria; type: cell-based; settings: Col-0 leaves; relative to E. coli elf18 positive control
EFR (#18) Nb plants = test: Oxidative burst, luminol-based assay, EFR transgenic Nb leaf discs; type: cell-based, Nicotiana benthamiana; settings: 100 nM peptide
Protocol: (§1) To measure the production of reactive oxygen species (ROS) in leaf tissue, size #1 leaf discs (Nb; n=12, tomato; n=8) were floated overnight in water. Each disc was then transferred to a well containing an assay mix of luminol (200 μM) and peroxidase (20 μg/ml) in 100 μl water. Each well was then treated with either: assay mix, 100 nm elf18, or 100 nm flg22. Luminescence in a 96-well plate was subsequently measured using a Flash Varioskan luminometer.

wild-type Nb [2] = test: Oxidative burst, luminol-based assay, wild-type Nb leaf discs; type: cell-based, Nicotiana benthamiana; settings: 100 nM peptide
Protocol: as §1

EFR plants (#18 Nb) = test: Early and late defense marker gene expression by RT-PCR, EFR Nb seedlings; type: in vivo, Nicotiana benthamiana; settings: 100 nM peptide, 0, 30, 60, 180 min
Protocol: (§2) Wild-type and #18 Nb were grown for one week on agar plates, then transferred to liquid culture and were grown for a further week. The expression of PAMP-induced genes was monitored over a time course. Seedlings were treated with 100 nM elf18 or flg22 for 0, 30, 60 or 180 minutes, and frozen in liquid nitrogen.
(§3) In brief: four elicited seedlings were thoroughly ground directly in the supplied extraction buffer in Eppendorf tubes using a pestle on an IKA RW 20 stirrer. Total RNAs were extracted using the Qiagen Rneasy Plant Mini kit. The quality of the extracted RNA was confirmed by running an ethidium bromide-stained agarose gel to reveal rRNAs. DNase treatment was performed using TURBO DNA-free kit (Ambion) and the concentration of total RNA was then measured using a Nanodrop. First strand cDNA synthesis was performed using SuperScript II Reverse Transcriptase (Invitrogen) in combination with Oligo(dT) prime on 2 μg of total RNA. One μl of cDNA was used in PCR under the following conditions: 95° C. 2 min; [95° C. 45 sec; 58° C. 45 sec; 55° C. 30 sec; 72° C. 1.5 min]×25; 72° C. 5 min. The genes used as defense markers were: CYP72D2 (cytochrome P450), FLS2 (receptor kinase for flg22), ACRE132 (putative RING finger protein) and WRKY22 (transcription factor). As loading control the constitutively expressed EF-1α housekeeping gene was also amplified.

wild-type Nb [3] = test: Early and late defense marker gene expression by RT-PCR, wild-type Nb seedlings; type: in vivo, Nicotiana benthamiana; settings: 100 nM peptide, 0, 30, 60, 180 min
Protocol: as §2, §3

EFR Nb = test: Callose deposition, aniline blue staining, EFR Nb leaves; type: in vivo, Nicotiana benthamiana; settings: 100 nM peptide infiltrated, ~16 hours, data not shown
Protocol: A solution of either water, 100 nM elf18, or 100 nM flg22 was used to infiltrate leaves of 4-week old wild-type and EFR Nb. Size #3 leaf discs (n=8) were sampled after ˜16 hours and destained in methanol overnight. Discs were rinsed in water, then left to stain overnight in a solution of 0.05% aniline blue in 50 mM phosphate buffer pH 8.5. Callose deposition at the plant cell periphery could then be viewed under a fluorescence microscope.

Wild-type Nb plants = test: Seedling growth inhibition (fresh weight), wild-type Nb; type: in vivo, Nicotiana benthamiana; settings: 0.1-1000 nM peptide, one week
Protocol: (§4) Wild-type, #16 and #18 Nb as well as Col and efr Arabidopsis thaliana seedlings were grown for one week onMS 1% sucrose agar plates, then transferred to liquid culture and were grown for one week in a serial dilution or elf18 or flg22. Dilutions of 0.1, 1, 10, 100 and 1000 nM were used for all five plant lines. Seedlings (n=4) were blotted on absorbent paper and their fresh weight was measured.

[4] = test system: EFR plants (Nb expressing transgenic AtEFR); test: Seedling growth inhibition (fresh weight), EFR Nb; type: in vivo, Nicotiana benthamiana; settings: 0.1-1000 nM peptide, one week
Protocol: as §4

Wild-type Col plants = test: Seedling growth inhibition (fresh weight), Arabidopsis wild-type Col; type: in vivo, Arabidopsis thaliana; settings: 0.1-1000 nM peptide, one week
Protocol: as §4

efr plants = test: Seedling growth inhibition (fresh weight), Arabidopsis efr; type: in vivo, Arabidopsis thaliana; settings: 0.1-1000 nM peptide, one week
Protocol: as §4

[5] = test system: primary transformant tomato plants; test: Oxidative burst, luminol-based assay, AtEFR tomato primary transformants; type: cell-based, Solanum lycopersicum; settings: 100 nm peptide; ten positive tomato lines; data not shown
Protocol: as §1, with “tomato and potato;” for “tomato;”
The detection of an oxidative burst is a relatively simple and reliable assay for defense activation. Cumulative luminescence was recorded for each plant over a time course of 40 minutes. […] Several other transformants were unable to express functional AtEFR as they give very little response to elf18, yet are able to respond to flg22 elicitation (data not shown). Other transformants, perhaps due to old age, were unable to respond to elf18 or flg22 treatment (data not shown). The 10 positive lines appear to have acquired EF-Tu responsiveness in this assay. Therefore seeds were harvested to grow homozygous lines for use in further assays to confirm of these initial results.

[6] = test system: transgenic EFR potatoes (Desiree); test: Oxidative burst, luminol-based assay, transgenic EFR potatoes; type: cell-based, Solanum tuberosum; settings: 100 nm peptide; positive potato lines; data not shown
Protocol: as §1, with “tomato and potato;” for “tomato;”
Oxidative burst assays were also conducted with transgenic EFR potatoes (Desiree).

Substance	eliciting activity (oxidative burst) [1]	release of reactive oxygen species (luminescence) (EFR (#18) Nb plants)	release of reactive oxygen species (luminescence) (wild-type Nb [2])	defense marker gene induction (EFR plants (#18 Nb))	defense marker gene induction (wild-type Nb [3])	callose deposition (EFR Nb)	seedling growth inhibition (fresh weight) (Wild-type Nb plants)	seedling growth inhibition (fresh weight) [4]	seedling growth inhibition (fresh weight) (Wild-type Col plants)	seedling growth inhibition (fresh weight) (efr plants)	burst of ROS (cumulative luminescence over 40 minutes) [5]	burst of ROS [6]
elf18 Pseudomonas syringae pv. syringae DC3000: synthetic elf18 peptide derived from EF-Tu of Pseudomonas syringae DC3000 (pv. tomato per b37) (MAKEKFDRSLPHCNVGTI; ends and bridges not checked)	very low eliciting activity											
elf18 Xanthomonas campestris pv campestris 8004 and B100: synthetic elf18 peptide derived from EF-Tu of Xanthomonas campestris pv. campestris 8004 and B100 (MARAKFLREKLHVNVGTI; Xanthomonas campestris pv. campestris 8004)	very low eliciting activity											
elf18: EF-Tu epitope elf18: region of 18 amino-acids at the N-acetylated terminus of eubacterial EF-Tu recognized by EFR (Ac-MARAKFLREKLHVNVGTI)		peak of luminescence corresponding to a burst of ROS	never revealed a burst of ROS	marker gene expression which is at least as strong as under flg22 treatment	unable to elicit a significant amount of expression	stronger response	able to grow in the presence of up to 1000 nM elf18	responsive	decreasing growth as elf18 concentration increases	insensitive	considerable burst of ROS	considerable burst of ROS

— US9816103B2, “Methods of enhancing the resistance of plants to bacterial pathogens” (priority 2008, dated 2017)
